Data set [1] can be described thus: Tissue PK profile in rat (liver and plasma drug level). The conditions noted are these: 10 mg/kg; for concentration at 4 h: in vivo, po; for Kp at 4 h: liver/plasma, 4 hours after PO dosing at 10 mpk, vehicle 0.5% MC, read-out: liver/plasma ratio. It is filed as in vivo. The procedure: The tissue PK profile of compounds described in this application were evaluated in rat. The tissue was harvested 4 hours after PO dosing at 10 mpk (vehicle: 0.5% MC; dose volume: 5 mL/Kg) and the drug level was determined. Shown in Table 1 are compound concentrations of selected examples in rat liver and plasma, as well as liver to plasma drug ratio.

Data set [2] deals with T1, human HIF-PHD2 (Homo sapiens, UniProt Q9GZT9).
T1 construct: FLAG-tagged full length PHD2 expressed in and purified from baculovirus-infected Sf9 cells; FLAG; made in house; host or cells: baculovirus-infected Sf9 cells
T1 sequence (Q9GZT9 whole entry): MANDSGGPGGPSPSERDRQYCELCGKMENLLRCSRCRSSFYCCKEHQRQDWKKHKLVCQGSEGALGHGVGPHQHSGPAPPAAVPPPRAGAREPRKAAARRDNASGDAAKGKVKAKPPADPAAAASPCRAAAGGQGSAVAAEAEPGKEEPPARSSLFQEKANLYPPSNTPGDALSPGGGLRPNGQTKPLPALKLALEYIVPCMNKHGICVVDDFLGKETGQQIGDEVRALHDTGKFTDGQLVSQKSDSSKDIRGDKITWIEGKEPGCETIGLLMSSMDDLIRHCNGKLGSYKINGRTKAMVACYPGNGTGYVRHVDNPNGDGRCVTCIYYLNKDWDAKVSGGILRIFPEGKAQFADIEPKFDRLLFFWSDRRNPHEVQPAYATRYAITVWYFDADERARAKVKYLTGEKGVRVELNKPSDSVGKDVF
In words: HIF-PHD2 inhibition, time resolved fluorescence assay of HIF-1α peptide hydroxylation. The class given is biochemical. The conditions noted are these: FLAG-tagged full length PHD2; 0.2 μM 2-oxoglutarate, 0.5 μM HIF-1α peptide. The procedure: To each well of a 384-well plate, 1 μL of test compounds in DMSO (final concentration ranging from 0.3 nM to 10 uM) were added into 20 μl of assay buffer (50 mM Tris pH 7.4/0.01% Tween-20/0.1 mg/ml bovine serum albumin/10 μM ferrous sulfate/1 mM sodium ascorbate/20 μg/ml catalase) containing 0.15 μg/ml FLAG-tagged full length PHD2 expressed in and purified from baculovirus-infected Sf9 cells. After a 5 min preincubation at room temperature, the enzymatic reactions were initiated by the addition of 4 μL of substrates {final concentrations of 0.2 μM 2-oxoglutarate and 0.5 μM HIF-1α peptide biotinyl-[…] […] After incubation for 45 minutes at room temperature, the reactions were terminated by the addition of a 25 μL quench/detection mix to a final concentration of 1 mM ortho-phenanthroline, 0.1 mM EDTA, 0.5 nM anti-(His)6 LANCE reagent (Perkin-Elmer Life Sciences), 100 nM AF647-labeled streptavidin (Invitrogen), and 2 μg/ml (His)6-VHL complex {S. Tan Protein Expr. Purif.

On to `O=C(O)CNC(=O)c1c(O)c2c(n(Cc3nc(C(F)(F)F)cs3)c1=O)COC2` [Example 21, 2-(4-hydroxy-2-oxo-1-((4-(trifluoromethyl)thiazol-2-yl)methyl)-1,2,5,7-tetrahydrofuro[3,4-b]pyridine-3-carboxamido)acetic acid], for which the concentration at 4 h in data set [1] (liver concentration) was determined as 4.77 µM; in data set [1] (plasma concentration) it was 0.008 µM. The Kp at 4 h in data set [1] is 587.

For the molecule `O=C(O)CNC(=O)c1c(O)c2c(n(Cc3ccc(Cl)cc3)c1=O)COC2` [Example 27, 2-(1-(4-chlorobenzyl)-4-hydroxy-2-oxo-1,2,5,7-tetrahydrofuro[3,4-b]pyridine-3-carboxamido)acetic acid], the results for the concentration at 4 h in data set [1] (liver concentration) and in data set [1] (plasma concentration) were 21.5 µM and 0.551 µM, respectively. Moreover, the Kp at 4 h in data set [1] was 39.6. In the case of `O=C(O)CNC(=O)c1c(O)c2c(n(Cc3cc(F)c(F)cc3F)c1=O)COC2` [Example 41, 2-(4-hydroxy-2-oxo-1-(2,4,5-trifluorobenzyl)-1,2,5,7-tetrahydrofuro[3,4-b]pyridine-3-carboxamido)acetic acid], the concentration at 4 h in data set [1] (liver concentration) was 41.4 µM; in data set [1] (plasma concentration), 0.476 µM. Also, in data set [1], the Kp at 4 h was 87.3. Taken in the same sequence, the figures for `O=C(O)CNC(=O)c1c(O)c2c(n(Cc3ccn(-c4ccccc4)n3)c1=O)COC2` [Example 22, 2-(4-hydroxy-2-oxo-1-((1-phenyl-1H-pyrazol-3-yl)methyl)-1,2,5,7-tetrahydrofuro[3,4-b]pyridine-3-carboxamido)acetic acid] were 0.816 µM, 0.0118 µM and 66.6. As to `O=C(O)CNC(=O)c1c(O)c2c(n(Cc3ncc(C(F)(F)F)cn3)c1=O)COC2` [Example 9, 2-(4-hydroxy-2-oxo-1-((5-(trifluoromethyl)pyrimidin-2-yl)methyl)-1,2,5,7-tetrahydrofuro[3,4-b]pyridine-3-carboxamido)acetic acid], the concentration at 4 h in data set [1] (liver concentration) came to 1.81 µM; in data set [1] (plasma concentration), 0.0376 µM. In data set [1], the Kp at 4 h was determined as 43.6. For `O=C(O)CNC(=O)c1c(O)c2c(n(Cc3cnc(C(F)(F)F)cn3)c1=O)COC2` [Example 11, 2-(4-hydroxy-2-oxo-1-((5-(trifluoromethyl)pyrazin-2-yl)methyl)-1,2,5,7-tetrahydrofuro[3,4-b]pyridine-3-carboxamido)acetic acid] the same measures were 7.9 µM, 0.022 µM and 359. With `O=C(O)CNC(=O)c1c(O)c2c(n(Cc3nc4ccccc4o3)c1=O)COC2` [Example 46, 2-(1-(benzo[d]oxazol-2-ylmethyl)-4-hydroxy-2-oxo-1,2,5,7-tetrahydrofuro[3,4-b]pyridine-3-carboxamido)acetic acid], the concentration at 4 h in data set [1] (liver concentration) was found to be 2.07 µM; in data set [1] (plasma concentration), 0.0345 µM. In addition, the Kp at 4 h in data set [1] was determined as 55. Consider `O=C(O)CNC(=O)c1c(O)c2c(n(Cc3cnc(C(F)(F)F)nc3)c1=O)COC2` [Example 12, 2-(4-hydroxy-2-oxo-1-((2-(trifluoromethyl)pyrimidin-5-yl)methyl)-1,2,5,7-tctrahydrofuro[3,4-b]pyridine-3-carboxamido)acetic acid], for which the values for the concentration at 4 h in data set [1] (liver concentration) and in data set [1] (plasma concentration) were 0.775 µM and 0.0123 µM, respectively. In addition, the Kp at 4 h in data set [1] was found to be 67.3. In the case of `O=C(O)CNC(=O)c1c(O)c2c(n(Cc3ccc4ccccc4c3)c1=O)COC2` [Example 47, 2-(4-hydroxy-1-(naphthalen-2-ylmethyl)-2-oxo-1,2,5,7-tetrahydrofuro[3,4-b]pyridine-3-carboxamido)acetic acid], in data set [2], the IC50 (as a rule, the midpoint of a concentration-inhibition curve) is 6.8 nM. The same measure, in the same setting: next, `COc1ccc(Cn2c3c(c(O)c(C(=O)NCC(=O)O)c2=O)COC3)cc1` [Example 28, 2-(4-hydroxy-1-(4-methoxybenzyl)-2-oxo-1,2,5,7-tetrahydrofuro[3,4-b]pyridine-3-carboxamido)acetic acid]: 2.8 nM. For the molecule `O=C(O)CNC(=O)c1c(O)c2c(n(Cc3cnc(C(F)(F)F)s3)c1=O)COC2` [Example 18, 2-(4-hydroxy-2-oxo-1-((2-(trifluoromethyl)thiazol-5-yl)methyl)-1,2,5,7-tetrahydrofuro[3,4-b]pyridine-3-carboxamido)acetic acid], the figures for the concentration at 4 h in data set [1] (liver concentration) and in data set [1] (plasma concentration) were 11.8 µM and 0.0559 µM, respectively. Moreover, the Kp at 4 h in data set [1] amounted to 258. Turning to `O=C(O)CNC(=O)c1c(O)c2c(n(Cc3ccc(F)cc3)c1=O)COC2` [Example 26, 2-(1-(4-fluorobenzyl)-4-hydroxy-2-oxo-1,2,5,7-tetrahydrofuro[3,4-b]pyridine-3-carboxamido)acetic acid], the IC50 in data set [2] turned out to be 2.7 nM. With `O=C(O)CNC(=O)c1c(O)c2c(n(Cc3ccc(C(F)(F)F)c(Br)c3)c1=O)COC2` [Example 45, 2-(1-(3-bromo-4-(trifluoromethyl)benzyl)-4-hydroxy-2-oxo-1,2,5,7-tetrahydrofuro[3,4-b]pyridine-3-carboxamido)acetic acid], in data set [2], inhibition was half-maximal at 3.3 nM (IC50).

For the molecule `Cc1cc(C(=O)O)ccc1-c1ccc(Cn2c3c(c(O)c(C(=O)NCC(=O)O)c2=O)COC3)cc1` [Example 64, 4′-((3-((Carboxymethyl)carbamoyl)-4-hydroxy-2-oxofuro[3,4-b]pyridin-1(2H,5H,7H)-yl)methyl)-2-methyl-[1,1′-biphenyl]-4-carboxylic acid], in data set [2], inhibition was half-maximal at 1.2 nM (IC50). Same read-out and setting: to `N#Cc1cccc(Cn2c3c(c(O)c(C(=O)NCC(=O)O)c2=O)COC3)c1` [Example 34, 2-(1-(3-cyanobenzyl)-4-hydroxy-2-oxo-1,2,5,7-tetrahydrofuro[3,4-b]pyridine-3-carboxamido)acetic acid] belongs 2.5 nM; to `Cn1c2c(c(O)c(C(=O)NCC(=O)O)c1=O)COC2` [Example 55, 2-(1-methyl-4-hydroxy-2-oxo-1,2,5,7-tetrahydrofuro[3,4-b]pyridine-3-carboxamido)acetic acid], 10.4 nM; to `O=C(O)CNC(=O)c1c(O)c2c(n(Cc3ncco3)c1=O)COC2` [Example 15, 2-(4-hydroxy-1-(oxazol-2-ylmethyl)-2-oxo-1,2,5,7-tetrahydrofuro[3,4-b]pyridine-3-carboxamido)acetic acid], 9.7 nM. Still for that read-out and setting: next, `O=C(O)CNC(=O)c1c(O)c2c(n(Cc3cccnc3)c1=O)COC2` [Example 37, 3-((3-((carboxymethyl)carbamoyl)-4-hydroxy-2-oxofuro[3,4-b]pyridin-1(2H,5H,7H)-yl)methyl)pyridin-1-ium chloride]: 3.3 nM. Still for that read-out and setting: to `O=C(O)CNC(=O)c1c(O)c2c(n(Cc3ccccc3C(=O)O)c1=O)COC2` [Example 58, 2-((3-((carboxymethyl)carbamoyl)-4-hydroxy-2-oxofuro[3,4-b]pyridin-1(2H,5H,7H)-yl)methyl)benzoic acid] belongs 17.4 nM; to `O=C(O)CNC(=O)c1c(O)c2c(n(Cc3ccc(C(=O)O)cc3)c1=O)COC2` [Example 57, 4-((3-((Carboxymethyl)carbamoyl)-4-hydroxy-2-oxofuro[3,4-b]pyridin-1(2H,5H,7H)-yl)methyl)benzoic acid], 7.2 nM. In the case of `C=Cc1ccc(Cn2c3c(c(O)c(C(=O)NCC(=O)O)c2=O)COC3)cn1` [Example 62, 2-(4-Hydroxy-2-oxo-1-((6-vinylpyridin-3-yl)methyl)-1,2,5,7-tetrahydrofuro[3,4-b]pyridine-3-carboxamido)acetic acid], in data set [2], inhibition was half-maximal at 3.7 nM (IC50). In data set [2], `Cc1cc(C#N)ccc1Cn1c2c(c(O)c(C(=O)NCC(=O)O)c1=O)COC2` [Example 49, 2-(1-(4-cyano-2-methylbenzyl)-4-hydroxy-2-oxo-1,2,5,7-tetrahydrofuro[3,4-b]pyridine-3-carboxamido)acetic acid] yielded an IC50 of 5.1 nM.

As to `CCn1c2c(c(O)c(C(=O)NCC(=O)O)c1=O)COC2` [Example 54, 2-(1-ethyl-4-hydroxy-2-oxo-1,2,5,7-tetrahydrofuro[3,4-b]pyridine-3-carboxamido)acetic acid], in data set [2], the IC50 is 17.4 nM. The same measure, in the same setting: to `C[C@H](NC(=O)c1c(O)c2c(n(Cc3ccc(C(F)(F)F)cc3)c1=O)COC2)C(=O)O` [Example 3, (S)-2-(4-hydroxy-2-oxo-1-(4-(trifluoromethyl)benzyl)-1,2,5,7-tetrahydrofuro[3,4-b]pyridine-3-carboxamido)propanoic acid] belongs 36.4 nM. The same measure, in the same setting: next, `CC(c1ccc(C(F)(F)F)cc1)n1c2c(c(O)c(C(=O)NCC(=O)O)c1=O)COC2` (centres unmarked) [Example 56, 2-(4-hydroxy-2-oxo-1-(1-(4-(trfluoromethyl)phenyl)ethyl)-1,2,5,7-tetrahydrofuro[3,4-b]pyridine-3-carboxamido)acetic acid]: 19.6 nM; `CC(C)(C)c1ccc(Cn2c3c(c(O)c(C(=O)NCC(=O)O)c2=O)COC3)cc1` [Example 30, 2-(1-(4-(tert-butyl)benzyl)-4-hydroxy-2-oxo-1,2,5,7-tetrahydrofuro[3,4-b]pyridine-3-carboxamido)acetic acid]: 4 nM.

The record behind these values is patent US20170226120A1, “INHIBITORS OF HIF PROLYL HYDROXYLASE” (MERCK SHARP & DOHME CORP., priority 2014, published 2017).
